# Key:
# C4-2B cells = assay: C4-2B cell proliferation, ASO in combination with MDV3100 (Example 19); type: cell-based, human
# Experimental: C4-2B cells were plated at 1,500 cells per well. […] ISIS 347526 was included as a negative control. […] After a treatment period of 6 days, the proliferative capacity of the cancer cells was measured with CellTiter 96® AQueous One Solution Cell Proliferation kit (Promega), following the manufacturer's instructions. Results are presented in Table 46 as percent inhibition of proliferation, relative to non-treated cells. Treatment of the cells with ISIS 549372 or ISIS 549458 reduced proliferation of the cells more extensively than treatment with ISIS 554221.
# AR mRNA [1] = assay: AR mRNA expression in MDA-MB-453 breast cancer orthotopic model; type: in vivo, human; settings: Study 2; tumor tissue, normalized to human actin; 50 mg/kg s.c. 5 days per week for 2 weeks
# [2] = cynomolgus monkey, in vivo, sc, 40 mg/kg
# Experimental: (§1) Prior to the study, the monkeys were kept in quarantine for a 30-day period, during which the animals were observed daily for general health. The monkeys were 2-4 years old and weighed between 2 and 4 kg. Thirteen groups of four randomly assigned male cynomolgus monkeys each were injected subcutaneously with ISIS oligonucleotide or PBS. PBS solution or ISIS oligonucleotides, at a dose of 40 mg/kg, were administered with a loading regimen consisting of four doses on the first week of the study (days 1, 3, 5, and 7), followed by a maintenance regimen consisting of once weekly administration starting on Day 14 (weeks 2 to 6). Subcutaneous injections were performed in clock-wise rotations at 4 sites on the back; one site per dose. The injection sites were delineated by tattoo, while sedated using ketamine, and were separated by a minimum of 3 cm.
# The concentrations of the full-length oligonucleotide in the kidney and the liver of select treatment groups were measured. The method used is a modification of previously published methods (Leeds et al., 1996; Geary et al., 1999) which consist of a phenol-chloroform (liquid-liquid) extraction followed by a solid phase extraction.
# AR mRNA [3] = assay: AR RNA expression in LNCaP cells (complete, CSS, CSS+DHT medium); type: cell-based, human; settings: for Percent expression of AR in LNCaP cells cultured in CSS + DHT medium: CSS + DHT (1 nM) medium; for Percent expression of AR in LNCaP cells cultured in CSS + DHT medium / Percent expression of AR in LNCaP cells cultured in CSS medium: 48 hrs; for Percent expression of AR in LNCaP cells cultured in complete medium: 48 hours
# Experimental: Cells were plated at 1,000 cells per well. […] After an incubation period of 48 hours, RNA levels of AR, PSA and TMPRSS2 were measured.
# Cells were plated at 2,000 cells per well and cultured in phenol red-free RPMI supplemented with 5% charcoal stripped serum (Gibco) media for 16 hours. […] After an incubation period of 4 hrs, DHT was added to the medium to a final concentration of 1 nM as indicated. RNAs were collected 48 hrs later and levels of AR, PSA and TMPRSS2 were measured.
# [4] = cynomolgus monkey, in vivo, sc, 40 mg/kg; remark: listed apart in the source
# [5] = cynomolgus monkey, in vivo, sc, 40 mg/kg; remark: listed apart in the source
# Experimental: as §1
# To evaluate the effect of ISIS oligonucleotides on kidney function, the monkeys were fasted overnight. Approximately, 1.5 mL of blood samples were collected from all the study groups on day 44. Blood was collected in tubes without anticoagulant for serum separation. The tubes were kept at room temperature for a minimum of 90 min and then centrifuged at 3,000 rpm for 10 min. Levels of BUN and creatinine were measured using a Toshiba 120FR NEO chemistry analyzer (Toshiba Co., Japan).
# testosterone = assay: Serum testosterone levels in cynomolgus monkeys (ELISA); type: in vivo; settings: cynomolgus monkey, 40 mg/kg subcutaneously, 40 mg/kg
# Experimental: Serum testosterone protein levels were measured in the plasma with an ELISA kit (Enzo Life Sciences), following the manufacturer's instructions.
# AR V7 variant mRNA = assay: AR V7 variant RNA in VCaP cells; type: cell-based, human; settings: RNAiMax, 48 hrs
# Experimental: Cells were plated at 10,000 cells per well. […] ISIS 549148 was included as a negative control. After an incubation period of 48 hrs, RNA levels of full length AR, the V7 variant, PSA and TMPRSS2 were measured.
# A separate set of cells was treated with MDV-3100 at 0.04 μM, 0.2 μM, 1.0 μM, or 5.0 μM. After an incubation period of 48 hrs, RNA levels of full length AR, the V7 variant, PSA and TMPRSS2 were measured. The data is presented in Tables 108 expressed as percent expression of gene levels compared to the untreated control.
# Cells were plated at 15,000 cells per well and cultured in CSS media for 16 hours. […] ISIS 549148 was included as a negative control. After 4 hrs, 1 nM DHT was added. […] After an incubation period of 48 hrs, RNA levels of AR, PSA and TMPRSS2 were measured. […]
# [6] = cynomolgus monkey, in vivo, sc, 40 mg/kg; remark: listed apart in the source
# Experimental: as §1
# To evaluate any effect of ISIS oligonucleotides in cynomolgus monkeys on hematologic parameters, blood samples of approximately 0.5 mL of blood was collected day 44 from each of the available study animals in tubes containing K2-EDTA. Samples were analyzed for red blood cell (RBC) count, white blood cells (WBC) count, platelet count, hemoglobin content and hematocrit, using an ADVIA2120i hematology analyzer (SIEMENS, USA).
# [7] = cynomolgus monkey, in vivo, sc, 40 mg/kg; remark: listed apart in the source
# Experimental: as §1
# To evaluate the effect of ISIS oligonucleotides on hepatic function, the monkeys were fasted overnight. Approximately, 1.5 mL of blood samples were collected on day 44 from all the study groups. Blood was collected in tubes without anticoagulant for serum separation. The tubes were kept at room temperature for a minimum of 90 min and then centrifuged at 3,000 rpm for 10 min. Levels of various liver function markers were measured using a Toshiba 120FR NEO chemistry analyzer (Toshiba Co., Japan).
# [8] = cynomolgus monkey, in vivo, sc, 40 mg/kg; remark: listed apart in the source
# Experimental: The monkeys were 2-4 years old and weighed between 2 and 4 kg. Thirteen groups of four randomly assigned male cynomolgus monkeys each were injected subcutaneously with ISIS oligonucleotide or PBS. PBS solution or ISIS oligonucleotides, at a dose of 40 mg/kg, were administered with a loading regimen consisting of four doses on the first week of the study (days 1, 3, 5, and 7), followed by a maintenance regimen consisting of once weekly administration starting on Day 14 (weeks 2 to 6). Subcutaneous injections were performed in clock-wise rotations at 4 sites on the back; one site per dose. The injection sites were delineated by tattoo, while sedated using ketamine, and were separated by a minimum of 3 cm.
# To evaluate any inflammatory effect of ISIS oligonucleotides in cynomolgus monkeys, the monkeys were fasted overnight. Approximately, 1.5 mL of blood samples were collected from all the study groups on day 44. Blood was collected in tubes without anticoagulant for serum separation. The tubes were kept at room temperature for a minimum of 90 min and then centrifuged at 3,000 rpm for 10 min. C-reactive protein (CRP), which is synthesized in the liver and which serves as a marker of inflammation, was measured on day 43 using a Toshiba 120FR NEO chemistry analyzer (Toshiba Co., Japan). Complement C3 was also measured similarly, and the data is presented as a percentage of baseline values.
# full-length AR = assay: Western blot of full-length AR in C4-2B cells (time course); type: cell-based, human; settings: 24 hours and 48 hours, normalized to GAPDH
# Experimental: Protein levels in the cells were also analyzed. The cells were harvested in RIPA buffer containing protease inhibitors. The presence of bands for full-length AR was detected by western blot using AR antibody (N-20, SC-816, Santa Cruz Biotechnology).
sequence,measurement,setting,value
"GTTGATTTAATGGTTG (all phosphorothioate, sugars by position not given here; further chemistry not fully specified) [ISIS 549458]",Percent inhibition of C4-2B cell proliferation with 0.1 μM ASO,"C4-2B cells; 0.1 μM ASO + MDV3100 1 μM, 6 days",75%
same,Percent inhibition of C4-2B cell proliferation with 0.1 μM ASO,"C4-2B cells; 0.1 μM ASO + MDV3100 […], 6 days",59%
same,Percent inhibition of C4-2B cell proliferation with 0.1 μM ASO,"C4-2B cells; 0.1 μM ASO, MDV3100 0 μM, 6 days",39%
same,Percent inhibition of C4-2B cell proliferation with 0.2 μM ASO,"C4-2B cells; 0.2 μM ASO + MDV3100 1 μM, 6 days",79%
same,Percent inhibition of C4-2B cell proliferation with 0.2 μM ASO,"C4-2B cells; 0.2 μM ASO + MDV3100 […], 6 days",75%
same,Percent inhibition of C4-2B cell proliferation with 0.2 μM ASO,"C4-2B cells; 0.2 μM ASO, MDV3100 0 μM, 6 days",74%
same,synergy with MDV3100,C4-2B cells; C4-2B cells,synergistic with MDV3100
same,"cell proliferation inhibited, combination","C4-2B cells; C4-2B cells, 0.1 μM ASO in combination with […] MDV3100",75%
same,"inhibited cell proliferation, ASO alone","C4-2B cells; C4-2B cells, ASO alone at 0.1 μM",39%
same,"reduced cell proliferation, ASO alone","C4-2B cells; C4-2B cells, ASO alone, 6 days, Table 46 (0.1 μM ASO)",74%
same,"prostate cancer cell proliferation, ASO in combination with MDV3100","C4-2B cells; C4-2B cells, versus equal molar ISIS 554221 + MDV3100",inhibited prostate cancer cell proliferation to a greater extent than an equal molar concentration of ISIS 554221 in combination of MDV3100
"TGATTTAATGGTTGCA [ISIS 569236] (cEt/MOE gapmer chemistry, further chemistry not given here) [targets intron 1]",AR RNA expression inhibited compared to the control group,AR mRNA [1],19%
same,"Oligonucleotide concentration, Kidney",[2],1282 μg/g tissue
same,"Oligonucleotide concentration, Liver",[2],898 μg/g tissue
same,Percent expression of AR in LNCaP cells cultured in CSS + DHT medium,AR mRNA [3]; 0.04 μM,104%
same,Percent expression of AR in LNCaP cells cultured in CSS + DHT medium,AR mRNA [3]; 0.2 μM,86%
same,Percent expression of AR in LNCaP cells cultured in CSS + DHT medium,AR mRNA [3]; 1 μM,55%
same,Percent expression of AR in LNCaP cells cultured in CSS + DHT medium,AR mRNA [3]; 5.0 μM,21%
same,Percent expression of AR in LNCaP cells cultured in CSS medium,AR mRNA [3]; 0.04 μM,94%
same,Percent expression of AR in LNCaP cells cultured in CSS medium,AR mRNA [3]; 0.2 μM,66%
same,Percent expression of AR in LNCaP cells cultured in CSS medium,AR mRNA [3]; 1 μM,35%
same,Percent expression of AR in LNCaP cells cultured in CSS medium,AR mRNA [3]; 5.0 μM,13%
same,Percent expression of AR in LNCaP cells cultured in complete medium,AR mRNA [3]; 0.04 μM,98%
same,Percent expression of AR in LNCaP cells cultured in complete medium,AR mRNA [3]; 0.2 μM,90%
same,Percent expression of AR in LNCaP cells cultured in complete medium,AR mRNA [3]; 1 μM,47%
same,Percent expression of AR in LNCaP cells cultured in complete medium,AR mRNA [3]; 5.0 μM,20%
same,Body Wt,[4],2.4 kg
same,Heart weight,[4],8.4 g
same,Kidney weight,[4],12 g
same,Liver weight,[4],56 g
same,Mesenteric lymph nodes weight,[4],2.4 g
same,Spleen weight,[4],3.2 g
same,Plasma BUN,[5],24.9 mg/dL
same,Plasma Creatinine,[5],0.87 mg/dL
same,Serum testosterone level,testosterone,12.7 ng/mL
same,Percent inhibition of AR V7 variant,"AR V7 variant mRNA; CSS + DHT medium, 1.34 nM",37%
same,Percent inhibition of AR V7 variant,"AR V7 variant mRNA; CSS + DHT medium, 4.0 nM",33%
same,Percent inhibition of AR V7 variant,"AR V7 variant mRNA; CSS + DHT medium, 13.4 nM",48%
same,Percent inhibition of AR V7 variant,"AR V7 variant mRNA; CSS + DHT medium, 40 nM",39%
same,Percent inhibition of AR V7 variant,"AR V7 variant mRNA; complete medium, 1.34 nM",0%
same,Percent inhibition of AR V7 variant,"AR V7 variant mRNA; complete medium, 4.0 nM",40%
same,Percent inhibition of AR V7 variant,"AR V7 variant mRNA; complete medium, 13.4 nM",53%
same,Percent inhibition of AR V7 variant,"AR V7 variant mRNA; complete medium, 40 nM",80%
same,HCT,[6],44%
same,Hemoglobin,[6],13.1 g/dL
same,Platelets,[6],358000 µL
same,RBC,[6],5.7e+06 µL
same,WBC,[6],14400 µL
same,ALT,[7],35 IU/L
same,AST,[7],45 IU/L
same,Albumin,[7],4.1 g/dL
same,C3 (% of baseline),[8],103 % of baseline
same,CRP,[8],2.6 mg/dL
same,full-length AR protein (western blot),full-length AR,significantly reduced
"GGCTACTACGCCGTCA (3-10-3 (S)-cEt gapmer, chemistry not fully specified) [ISIS 549148, reference compound]",Percent expression of AR in LNCaP cells cultured in CSS + DHT medium,AR mRNA [3]; 0.04 μM,98%
same,Percent expression of AR in LNCaP cells cultured in CSS + DHT medium,AR mRNA [3]; 0.2 μM,102%
same,Percent expression of AR in LNCaP cells cultured in CSS + DHT medium,AR mRNA [3]; 1 μM,96%
same,Percent expression of AR in LNCaP cells cultured in CSS medium,AR mRNA [3]; 0.04 μM,106%
same,Percent expression of AR in LNCaP cells cultured in CSS medium,AR mRNA [3]; 0.2 μM,97%
same,Percent expression of AR in LNCaP cells cultured in CSS medium,AR mRNA [3]; 1 μM,96%
same,Percent expression of AR in LNCaP cells cultured in CSS medium,AR mRNA [3]; 5.0 μM,104%
same,Percent expression of AR in LNCaP cells cultured in complete medium,AR mRNA [3]; 0.04 μM,102%
same,Percent expression of AR in LNCaP cells cultured in complete medium,AR mRNA [3]; 1 μM,109%
same,Percent expression of AR in LNCaP cells cultured in complete medium,AR mRNA [3]; 5.0 μM,109%
same,Percent inhibition of AR V7 variant,"AR V7 variant mRNA; CSS + DHT medium, 1.34 nM",12%
same,Percent inhibition of AR V7 variant,"AR V7 variant mRNA; CSS + DHT medium, 4.0 nM",0%
same,Percent inhibition of AR V7 variant,"AR V7 variant mRNA; CSS + DHT medium, 13.4 nM",0%
same,Percent inhibition of AR V7 variant,"AR V7 variant mRNA; CSS + DHT medium, 40 nM",5%
same,Percent inhibition of AR V7 variant,"AR V7 variant mRNA; complete medium, 1.34 nM",0%
same,Percent inhibition of AR V7 variant,"AR V7 variant mRNA; complete medium, 4.0 nM",8%
same,Percent inhibition of AR V7 variant,"AR V7 variant mRNA; complete medium, 13.4 nM",0%
same,Percent inhibition of AR V7 variant,"AR V7 variant mRNA; complete medium, 40 nM",14%
